Source: the NIST ThermoML archive (doi:10.1016/j.jct.2013.11.022)

Test: mn = molality of the nth substance listed, in mol/kg
Conditions: 101.33 kPa, Liquid; for viscosity: Capillary tube (Ostwald / Ubbelohde) method; for speed of sound: Sing-around technique in a fixed-path interferometer; for mass density: Vibrating tube method

CCCCCCCCCCCCOS(=O)(=O)[O-].[Na+] [sodium dodecyl sulfate] + O
Conditions	mass density [kg/m3]	speed of sound [m/s]	viscosity [mPa·s]
293.15 K, m1 = 0.0001	998.198	1482.9	1.014
293.15 K, m1 = 0.0003	998.209	1482.9	1.014
293.15 K, m1 = 0.0005	998.221	1483	1.016
293.15 K, m1 = 0.002	998.31	1483.2	1.02
293.15 K, m1 = 0.004	998.425	1483.5	1.02
293.15 K, m1 = 0.006	998.538	1483.7	1.024
293.15 K, m1 = 0.008	998.647	1484	1.026
293.15 K, m1 = 0.01	998.75	1484.2	1.027
293.15 K, m1 = 0.012	998.851	1484.5	1.029
293.15 K, m1 = 0.014	998.949	1484.6	1.034
293.15 K, m1 = 0.016	999.048	1484.8	1.036
293.15 K, m1 = 0.018	999.145	1484.9	1.04
293.15 K, m1 = 0.02	999.237	1485	1.042
293.15 K, m1 = 0.022	999.338	1485.2	1.047
293.15 K, m1 = 0.024	999.426	1485.3	1.052
298.15 K, m1 = 0.0001	997.034	1497	0.895
298.15 K, m1 = 0.0003	997.045	1497	0.8952
298.15 K, m1 = 0.0005	997.057	1497.1	0.8955
298.15 K, m1 = 0.002	997.144	1497.3	0.8963
298.15 K, m1 = 0.004	997.255	1497.6	0.8969
298.15 K, m1 = 0.006	997.365	1497.8	0.8976
298.15 K, m1 = 0.008	997.472	1498.1	0.8981
298.15 K, m1 = 0.01	997.569	1498.4	0.899
298.15 K, m1 = 0.012	997.67	1498.6	0.9008
298.15 K, m1 = 0.014	997.768	1498.7	0.9073
298.15 K, m1 = 0.016	997.867	1498.9	0.9091
298.15 K, m1 = 0.018	997.957	1499	0.9114
298.15 K, m1 = 0.02	998.048	1499.1	0.9136
298.15 K, m1 = 0.022	998.142	1499.3	0.9191
298.15 K, m1 = 0.024	998.232	1499.4	0.9211
303.15 K, m1 = 0.0001	995.633	1509.3	0.801
303.15 K, m1 = 0.0003	995.644	1509.4	0.8015
303.15 K, m1 = 0.0005	995.655	1509.4	0.8018
303.15 K, m1 = 0.002	995.74	1509.6	0.8024
303.15 K, m1 = 0.004	995.848	1509.9	0.8028
303.15 K, m1 = 0.006	995.955	1510.2	0.8032
303.15 K, m1 = 0.008	996.058	1510.4	0.8037
303.15 K, m1 = 0.01	996.155	1510.7	0.8039
303.15 K, m1 = 0.012	996.252	1510.8	0.8054
303.15 K, m1 = 0.014	996.348	1511	0.8085
303.15 K, m1 = 0.016	996.441	1511.2	0.8114
303.15 K, m1 = 0.018	996.536	1511.3	0.8135
303.15 K, m1 = 0.02	996.624	1511.4	0.8161
303.15 K, m1 = 0.022	996.718	1511.6	0.8193
303.15 K, m1 = 0.024	996.807	1511.7	0.8206
308.15 K, m1 = 0.0001	994.016	1520	0.7228
308.15 K, m1 = 0.0003	994.026	1520	0.7232
308.15 K, m1 = 0.0005	994.037	1520	0.7236
308.15 K, m1 = 0.002	994.12	1520.2	0.7241
308.15 K, m1 = 0.004	994.224	1520.5	0.7245
308.15 K, m1 = 0.006	994.327	1520.8	0.725
308.15 K, m1 = 0.008	994.429	1521	0.7253
308.15 K, m1 = 0.01	994.524	1521.3	0.7259
308.15 K, m1 = 0.012	994.619	1521.5	0.7264
308.15 K, m1 = 0.014	994.715	1521.6	0.7279
308.15 K, m1 = 0.016	994.806	1521.8	0.73
308.15 K, m1 = 0.018	994.898	1521.9	0.7345
308.15 K, m1 = 0.02	994.988	1522	0.7388
308.15 K, m1 = 0.022	995.076	1522.2	0.7422
308.15 K, m1 = 0.024	995.164	1522.3	0.7465
313.15 K, m1 = 0.0001	992.2	1529	0.6564
313.15 K, m1 = 0.0003	992.21	1529	0.6566
313.15 K, m1 = 0.0005	992.22	1529.1	0.657
313.15 K, m1 = 0.002	992.299	1529.3	0.6576
313.15 K, m1 = 0.004	992.402	1529.5	0.6585
313.15 K, m1 = 0.006	992.5	1529.8	0.6599
313.15 K, m1 = 0.008	992.601	1530.1	0.6616
313.15 K, m1 = 0.01	992.696	1530.3	0.6628
313.15 K, m1 = 0.012	992.789	1530.5	0.6646
313.15 K, m1 = 0.014	992.884	1530.7	0.6667
313.15 K, m1 = 0.016	992.975	1530.8	0.6689
313.15 K, m1 = 0.018	993.061	1530.9	0.6718
313.15 K, m1 = 0.02	993.153	1531.1	0.6747
313.15 K, m1 = 0.022	993.239	1531.2	0.6775
313.15 K, m1 = 0.024	993.323	1531.3	0.6794
